In ChEMBL document CHEMBL1127245, “The effect of heteroatom substitution on a series of phosphonate inhibitors of neutral endopeptidase 24.11” (Bioorg Med Chem Lett, 1994):

The compounds below were run against T1, Neprilysin (Rattus norvegicus, UniProt P07861) (assay: In vitro inhibitory activity against neutral endopeptidase (NEP 24.11) from rat kidney cortex membranes).
T1 sequence (P07861 whole entry): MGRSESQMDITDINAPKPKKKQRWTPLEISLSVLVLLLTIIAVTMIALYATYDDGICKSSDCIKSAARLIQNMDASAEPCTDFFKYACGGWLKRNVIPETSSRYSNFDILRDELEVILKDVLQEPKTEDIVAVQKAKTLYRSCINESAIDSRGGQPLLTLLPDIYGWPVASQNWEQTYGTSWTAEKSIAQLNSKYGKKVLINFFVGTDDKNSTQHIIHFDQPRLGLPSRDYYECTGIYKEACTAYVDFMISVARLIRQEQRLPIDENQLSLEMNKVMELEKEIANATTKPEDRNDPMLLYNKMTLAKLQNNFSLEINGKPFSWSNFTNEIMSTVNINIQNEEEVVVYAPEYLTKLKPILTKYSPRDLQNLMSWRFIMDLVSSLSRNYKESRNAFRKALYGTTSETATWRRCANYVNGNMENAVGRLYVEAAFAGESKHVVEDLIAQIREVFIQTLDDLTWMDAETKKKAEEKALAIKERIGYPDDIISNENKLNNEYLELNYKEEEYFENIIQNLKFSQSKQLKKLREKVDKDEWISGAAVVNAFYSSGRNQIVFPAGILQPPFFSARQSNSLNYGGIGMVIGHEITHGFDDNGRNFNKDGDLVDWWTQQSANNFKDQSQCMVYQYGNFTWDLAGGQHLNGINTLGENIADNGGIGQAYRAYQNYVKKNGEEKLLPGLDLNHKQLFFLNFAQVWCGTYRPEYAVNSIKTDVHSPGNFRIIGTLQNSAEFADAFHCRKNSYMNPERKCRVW

Going from `O=C(O)CCNC(=O)C(Cc1ccc(-c2ccccc2)cc1)OCP(=O)(O)O` (stereo not given) to `O=C(O)CCNC(=O)C(Cc1ccc(-c2ccccc2)cc1)SCP(=O)(O)O` (stereo not given), the IC50 rises from 9.5 nM to 797 nM (84-fold). The first is the more potent here.

Going from `O=C(O)CCNC(=O)C(Cc1ccc(-c2ccccc2)cc1)S(=O)(=O)CP(=O)(O)O` (stereo not given) to `O=C(O)CCNC(=O)[C@H](Cc1ccc(-c2ccccc2)cc1)NCP(=O)(O)O`, the IC50 falls from over 10000 nM to 1.6 nM.

`O=C(O)CCNC(=O)C(CCP(=O)(O)O)Cc1ccc(-c2ccccc2)cc1` (stereo not given) showed an IC50 of 1000 nM.
